Legend:
CD4+CD25− T cells = assay: Treg induction from anti-CD3-activated CD4+CD25- T cells in vitro (flow cytometry, TGFbeta ELISA); assay type: cell-based
Description: Purified CD4+CD25− T cells were stimulated with plate-bound anti-CD3 antibody for 48 hr at 37 degrees C. in the presence of 10 microM TSP-peptide or control peptide. Activated T cells were washed and subjected to 2 cycles of amplification, 48 hr each, in the presence of T cell growth factor IL-2 (50 U/ml). Proliferated T cells were then stained using fluorochrome-conjugated antibodies to label surface CD4 and CD25 and intracellular Foxp3. Stained cells were analyzed using a flow cytometer. Culture supernatants collected from cells after initial 48 hr culture were tested for the content of TGFbeta using an ELISA.

[1] = tested on: experimental mouse model of autoimmune uveitis (IRBP-immunized mice); assay: Experimental autoimmune uveitis, topical peptide treatment, clinical disease score and lymph node Th17/Treg transcription factor message; assay type: in vivo, C57BL/6 mice; settings: for disease severity / ocular inflammation (clinical disease score): topical 10 microgram per mouse (5 microgram per eye) once per day, day 1 to 7, scored for 26 days, compared to control peptide
Description: (§1) The expansion of Treg cells and the reduction of inflammatory effector cells was evaluated in an experimental mouse model of autoimmune uveitis to determine if the TSP-1 peptide reduced disease severity. […] The inflammatory response in the retina is monitored and scored regularly on the basis of severity by examining the fundus.
For topical administration, 10 microgram per mouse (5 microgram per eye) was administered for the duration of 7 days. TSP peptide was administered topically once per day for 7 days post-immunization with IRBP-CFA. 1 microgram per microliter solution was used for the eye drops, i.e., 0.1% solution used as 5 microliter per eye resulting in total 10 microliter (10 microgram) per mouse. A liquid formulation was used in topical application as well as when peptide was administered intraperitoneally.
C57BL/6 mice were immunized subcutaneously, on day 0, with 200 microgram IRBP in complete Freund's adjuvant per mouse followed by i.p. injection of Pertussis toxin (0.1 microgram). From day 1 to day 7 pos-immunization total 10 microgram of control or TSP-peptide was administered topically (5 micrograms/5 microliters per eye). Clinical disease score was recorded for the 26 days post-immunization.

[2] = tested on: CD4+ T cells derived from the spleen and lymph node; assay: Treg and inflammatory effector cells in ova/CFA-immunized mice (flow cytometry); assay type: in vivo; settings: 10 μg on day 1, 3 and 5 post-immunization, analysed day 7; compared to control peptide
Description: To determine if such an expansion of Treg cells by TSP-peptide is possible in vivo, and whether it can reduce the typical IL-17 or IFNγ-producing inflammatory effectors, mice were immunized with an ovalbumin (ova) antigen in Complete Freund's Adjuvant (CFA). This is a commonly used experimental approach to generate antigen-specific inflammatory effectors. These ova-immunized mice were treated with either control or TSP-peptide (10 μg; SEQ ID NO:1) on day 1, 3 and 5 post-immunization. On day 7 post-immunization, the CD4+ T cells derived from the spleen and lymph node of these mice were analyzed by flow cytometry to determine the numbers of Foxp3+ Treg cells and the expression patterns of the inflammatory cytokines, IL-17 and […].
Lymph nodes were harvested from immunized mice treated with either control or TSP-peptide 7 days post-immunization. Lymph node cells were cultured in the presence of PMA (10 ng/ml), ionomycin (200 ng/ml) and Brefeldin A for 20 hr at 37 degrees C. Cell surface CD4 and CD25 and intracellular Foxp3, IFNgamma and IL-17 were detected using fluorochrome-conjugated antibodies followed by flow cytometric analysis.

[3] = tested on: experimental mouse model of autoimmune uveitis (IRBP-immunized mice); assay: Experimental autoimmune uveitis, i.p. peptide treatment, clinical disease score; assay type: in vivo, C57BL/6 mice; settings: i.p. 10 microgram on day 1, 3 and 5 post-immunization; scored for 26 days; compared to control peptide
Description: as §1
C57BL/6 mice were immunized subcutaneously, on day 0, with 200 microgram IRBP in complete Freund's adjuvant per mouse followed by i.p. injection of Pertussis toxin (0.1 microgram). On day 1, 3 and 5 post-immunization mice received i.p. injection of 10 microgram of either control or TSP-peptide. Clinical disease score was recorded for the 26 days post-immunization.

[4] = topical treatment, relative to control peptide

Sequence: KRFYVVMWKK (listed as Homo sapiens) [4N1K, 4N1 flanked with 2 Lys residues]
- number of cells expressing Foxp3 and CD25 (CD4+CD25− T cells; 10 microM peptide, 48 hr anti-CD3 activation, then 2 cycles IL-2, compared to control peptide (4NGG)): significantly increased
- synthesis of immunosuppressive cytokine TGF-β1 (CD4+CD25− T cells; 10 microM peptide, culture supernatant after initial 48 hr, ELISA): increased
- induction of Treg cells in vitro (CD4+CD25− T cells; in vitro): effectively induces Treg cells
- disease severity / ocular inflammation (clinical disease score) [1]: significantly reduced
- disease severity / ocular inflammation (clinical disease score) ([1]; listed as TSP-1 peptide): reduction of ocular inflammation
- anti-inflammatory Treg cells in the lymph nodes (transcriptional factor message) [1, 4]: enhancement
- pro-inflammatory Th17 cells in the lymph nodes (transcriptional factor message) [1, 4]: decline
- numbers of Foxp3-expressing Treg cells [2]: increased numbers
- numbers of IFN-γ-expressing CD4 effectors [2]: reduced numbers
- numbers of IL-17-expressing CD4 effectors [2]: reduced numbers
- disease severity (clinical disease score) [3]: significantly reduced
